Test results reported in patent US7977364B2, “Indazoles, benzisoxazoles and benzisothiazoles and their use as estrogenic agents” (Laboratoire Thermamex, priority 2004, dated 2011).
Like-named read-outs stand apart in the source and are kept apart here.

How the values were obtained:
[1] = system: ovariectomized rats; assay: Hot flush model in vivo: tail skin temperature, uteri and body weight
[2] = system: Prepubescent female rats; assay: Estrogenic / uterotrophic activity in vivo (uterus wet weight); set-up: species or system rat; settings: for change in vivo at 3 mg: orally 3 mg/rat/day for 3 days
Summary of the method: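 Prepubescent female rats dosed orally for 3 days at 3 mg/rat/day, or at 0.3, 1, 3 or 10 mg/rat/day. Uteri removed the following day and wet-weighed; values given as % stimulation of uterine weight over vehicle.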

[3] = target: T1, purified full-length recombinant human ERα (Homo sapiens, UniProt P03372); assay: Estrogen receptor α competitive radiometric binding assay ([3H]-E2)
T1 sequence (P03372 1-595): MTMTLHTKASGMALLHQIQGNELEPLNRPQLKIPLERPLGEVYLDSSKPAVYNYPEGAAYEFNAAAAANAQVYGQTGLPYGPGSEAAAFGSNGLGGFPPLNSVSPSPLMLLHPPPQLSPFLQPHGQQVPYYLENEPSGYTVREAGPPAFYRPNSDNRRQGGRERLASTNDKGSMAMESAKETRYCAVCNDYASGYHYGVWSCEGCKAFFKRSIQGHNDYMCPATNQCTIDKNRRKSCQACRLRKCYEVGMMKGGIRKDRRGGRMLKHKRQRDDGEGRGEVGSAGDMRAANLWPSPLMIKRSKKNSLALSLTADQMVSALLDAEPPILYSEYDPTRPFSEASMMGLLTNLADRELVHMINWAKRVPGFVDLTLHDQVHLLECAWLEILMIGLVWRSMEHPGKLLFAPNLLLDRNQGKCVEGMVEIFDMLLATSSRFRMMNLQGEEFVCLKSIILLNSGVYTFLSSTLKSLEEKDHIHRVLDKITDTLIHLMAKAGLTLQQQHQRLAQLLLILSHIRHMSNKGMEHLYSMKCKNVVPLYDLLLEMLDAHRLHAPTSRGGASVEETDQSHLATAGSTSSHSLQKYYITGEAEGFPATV
Method: (§1) Relative binding affinities (RBA) were determined by competitive radiometric binding assays, using purified full-length recombinant human ERα and ERβ (PanVera, Madison, Wis.). […] After shaking for a few seconds and centrifugation at 1500 g and 4° C. for 10 minutes, 150 μl/well of Optiphase ‘Super Mix’ scintillation liquid was mixed with 50 μl of supernatant of each sample and the radioactivity was measured in a MicroBeta counter (Wallac, Turku, Finland). Data were evaluated by a sigmoidal dose-response curve (Prism, GraphPad Software Inc.) to estimate the concentration of competitor at half-maximal specific binding (IC50). […] The selectivity for ERα and ERβ was obtained from the ratio R of the IC50 for ERα to the IC50 for ERβ for each test compound.

[4] = target: purified full-length recombinant human ERβ (Homo sapiens, UniProt Q92731); assay: Estrogen receptor β competitive radiometric binding assay ([3H]-E2)
Sequence of purified full-length recombinant human ERβ (Q92731 whole entry): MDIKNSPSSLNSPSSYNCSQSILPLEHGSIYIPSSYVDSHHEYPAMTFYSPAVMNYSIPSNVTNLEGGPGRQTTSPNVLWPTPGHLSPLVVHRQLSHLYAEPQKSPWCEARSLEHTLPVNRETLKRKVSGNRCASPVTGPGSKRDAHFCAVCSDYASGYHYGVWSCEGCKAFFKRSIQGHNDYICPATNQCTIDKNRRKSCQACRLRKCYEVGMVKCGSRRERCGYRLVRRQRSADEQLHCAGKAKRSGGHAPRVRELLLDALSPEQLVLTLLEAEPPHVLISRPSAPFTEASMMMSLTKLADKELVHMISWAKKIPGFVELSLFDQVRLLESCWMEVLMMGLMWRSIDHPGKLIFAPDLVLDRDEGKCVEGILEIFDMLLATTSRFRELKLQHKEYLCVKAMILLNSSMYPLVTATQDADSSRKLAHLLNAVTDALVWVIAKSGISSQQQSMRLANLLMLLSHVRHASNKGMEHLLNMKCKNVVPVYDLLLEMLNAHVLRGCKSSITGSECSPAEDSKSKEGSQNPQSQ
Method: as §1

[5] = ratio of IC50s of E2 and competitor, E2 set at 100%

uterotrophicity after oral administration ([2]; up to a 3 mg/animal/day dosage, in words): lack of uterotrophicity
IC50 [3]: 1330 ± 268 nM
RBA (%) Mean ± S.E.M, ER α [3, 5]: 0.2 ± 0.05%
IC50 [4]: 41.8 ± 7.1 nM
ligand to estrogen receptor beta ([4]; in words): potent ligand
selectivity for the human recombinant estrogen receptor β ([4]; in words): marked selectivity
RBA (%) Mean ± S.E.M, ER β [4, 5]: 10.4 ± 4.0%
R (IC50s) αβ ([4]; ratio of the IC50 for ERα to the IC50 for ERβ): 31.9
SMILES: Oc1ccc2c(C3CCCC3)n[nH]c2c1 [Ex 23, 3-cyclopentyl-1H-indazol-6-ol]
TST Variation day 1 vs day 0 ([1]; 0.3 mg/rat/day): −0.8 C. °
TST Variation day 4 vs day 0 ([1]; 0.3 mg/rat/day): −2.1 C. °
TST Variation day 7 vs day 0 ([1]; 0.3 mg/rat/day): −1.9 C. °
tail skin temperature of ovariectomized rat ([1]; in words): decreased tail skin temperature
change in vivo at 3 mg ([2]; Rattus norvegicus, po, 72 h, Table 4, read-out: % stimulation vs vehicle (uterus weight)): 12%
change in vivo at 0.3 mg ([2]; Rattus norvegicus, po, 72 h, Table 5, orally 0.3 mg/rat/day for 3 days, read-out: % stimulation vs vehicle (uterus weight)): -13%
change in vivo at 1 mg ([2]; Rattus norvegicus, po, 72 h, Table 5, orally 1 mg/rat/day for 3 days, read-out: % stimulation vs vehicle (uterus weight)): -5%
change in vivo at 3 mg ([2]; Rattus norvegicus, po, 72 h, Table 5, read-out: % stimulation vs vehicle (uterus weight)): -4%
change in vivo at 10 mg ([2]; Rattus norvegicus, po, 72 h, Table 5, orally 10 mg/rat/day for 3 days, read-out: % stimulation vs vehicle (uterus weight)): 20%
in vivo estrogenic activity after oral administration ([2]; in words): weak in vivo estrogenic activity
